Source: paper PMC3197600 (PLoS Pathogens, 2011)

Columns and labels:
Assay in all cases: biochemical
[1] = molecular target: N5 (avian H12N5 neuraminidase) (Influenza A virus (A/duck/Alberta/60/1976(H12N5)), UniProt A1ILL9)
[2] = molecular target: p57N2 (pandemic A/RI/5+/1957 H2N2 N2 neuraminidase) (Influenza A virus, UniProt Q194T1); parameters: species or system influenza A virus A/RI/5+/1957 H2N2
[3] = molecular target: p09N1 (pH1N1 N1 neuraminidase) (Influenza A virus (A/California/04/2009(H1N1)), UniProt C3W5S3); parameters: species or system 2009 pandemic influenza A H1N1 virus

Structure (SMILES)	IC50 [1]	IC50 [2]	IC50 [3]
CO[C@@H]([C@@H]1OC(C(=O)O)=C[C@H](NC(=N)N)[C@H]1NC(C)=O)[C@H](O)CO [laninamivir]	0.9 nM	3.12 nM	
[H]/N=C(\N)N[C@H]1C=C(C(=O)O)O[C@@H]([C@H](OC)[C@H](O)COC(=O)CCCCCCC)[C@@H]1NC(C)=O [CS-8958, laninamivir octanoate]	389 nM	129 nM	947 nM
CCOC(=O)C1=C[C@@H](OC(CC)CC)[C@H](NC(C)=O)[C@@H](N)C1 [oseltamivir]	0.83 nM	0.79 nM	
